In US9168259B2 (GRÜNENTHAL GMBH, priority 2010, dated 2015):
Like-named read-outs stand apart in the source and are kept apart here.

Target: T1, KCNQ2/3 channels (Homo sapiens, UniProt O43525+O43526)
T1 construct: expressed in transfected cells
Test: Fluorescence assay using a voltage sensitive dye (fluorimetry)
Type: cell-based
Text: Method I. Fluorescence Assay Using a Voltage Sensitive Dye (Fluorimetry)
These voltage-sensitive dyes are fluorescent dyes and, therefore, are forming the link between cell potential influenced by KCNQ modulation and fluorescence intensity. A KCNQ agonist leads to an opening of the channel, potassium and dye efflux, a following hyperpolarization and a reduction of the inner fluorescence intensity in a kinetic protocol. If applying an ion jump by KCl depolarization, KCNQ agonists increase the ΔF/F value. An antagonist performs vice versa, respectively.
Therefore, ‘fluorimetry EC50’ is a measure for the compound potency. The compound efficacy is mirrored by ‘fluorimetry % efficacy’ (‘% Efficacy’) and refers to the maximum response achievable by the test compound, i.e. the plateau effect. This drug's plateau effect is related to the plateau effect, which can be achieved by applying a saturated concentration of a reference compound, e.g. Retigabine (50 μM), in independent wells of the same experimental plate or series.
[…] CHO-K1 cells expressing KCNQ2/3 channels are cultivated adherently at 37° C., 5% CO2 and 95% humidity in cell culture bottles (e.g. 80 cm^2 TC flasks, Nunc) with DMEM-high glucose (Sigma Aldrich, D7777) including 10% FCS (PAN Biotech, e.g. 3302-P270521) or alternatively MEM Alpha Medium (1×, liquid, Invitrogen, #22571), 10% fetal calf serum (FCS) (Invitrogen, #10270-106, heat-inactivated) and the necessary selection antibiotics.
The cell number is determined using a CASY™ cell counter (TCC, Schärfe System). Depending on the optimal density for each individual cell line, 20,000-30,000 cells/well/100 μl are seeded onto 96-well Corning™ CellBIND™ assay plates (Flat Clear Bottom Black Polystyrene Microplates, #3340). Freshly seeded cells are then left to settle for one hour at room temperature, followed by incubation for 24 hours at 37° C., 5% CO2 and 95% humidity.
The voltage-sensitive fluorescent dye from the Membrane Potential Assay Kit (Red™ Bulk format part R8123 for FLIPR, MDS Analytical Technologies™) is prepared by dissolving the contents of one vessel Membrane Potential Assay Kit Red Component A in 200 ml of extracellular buffer (ES buffer, 120 mM NaCl, 1 mM KCl, 10 mM HEPES, 2 mM CaCl2, 2 mM MgCl2, 10 mM glucose; pH 7.4). After removal of the nutrient medium, the cells are washed once with 200 μl of ES buffer, then loaded for 45 min at room temperature in 100 μl of dye solution in the dark.
Fluorescence measurements are carried out in a BMG Labtech FLUOstar™, BMG Labtech NOVOstar™ or BMG Labtech POLARstar™ instrument (525 nm excitation, 560 nm emission, Bottom Read mode). After incubation with the dye, 50 μl of the test substances in the desired concentrations, or 50 μl of ES buffer for control purposes, are applied to the wells of the assay plate and incubated for 30 min at room temperature while being shielded from light. The fluorescence intensity of the dye is then measured for 5 min and the fluorescence value F1 of each well is thus determined at a given, constant time. 15 μl of a KCl solution are then added to each well (final concentration of potassium ions 92 mM). The change in fluorescence intensity is subsequently monitored until all the relevant values have been obtained (mainly 5-30 min). At a given time post KCl application, a fluorescence value F2 is determined, in this case at the time of the fluorescence peak.
For calculation, the fluorescence intensity F2 is corrected for the fluorescence intensity F1, and the activity (ΔF/F) of the target compound on the potassium channel is determined as follows:
In order to determine whether a substance has agonistic activity,
[formula] can be related to
[formula] of control wells.
[formula] is determined by adding to the well only the buffer solution instead of the test substance, determining the value F1K of the fluorescence intensity, adding the potassium ions as described above, and measuring a value F2K of the fluorescence intensity.

[1] = CHO-K1, plateau effect relative to saturated retigabine (50 μM) = 100%, CHO-K1 cells expressing KCNQ2/3, negative values = antagonistic, read-out: Fluorimetry % efficacy (retigabine = 100%)
[2] = CHO-K1 cells expressing KCNQ2/3, IC50 where % efficacy is negative, read-out: Fluorimetry EC50/IC50

T1 sequence (O43526 whole entry): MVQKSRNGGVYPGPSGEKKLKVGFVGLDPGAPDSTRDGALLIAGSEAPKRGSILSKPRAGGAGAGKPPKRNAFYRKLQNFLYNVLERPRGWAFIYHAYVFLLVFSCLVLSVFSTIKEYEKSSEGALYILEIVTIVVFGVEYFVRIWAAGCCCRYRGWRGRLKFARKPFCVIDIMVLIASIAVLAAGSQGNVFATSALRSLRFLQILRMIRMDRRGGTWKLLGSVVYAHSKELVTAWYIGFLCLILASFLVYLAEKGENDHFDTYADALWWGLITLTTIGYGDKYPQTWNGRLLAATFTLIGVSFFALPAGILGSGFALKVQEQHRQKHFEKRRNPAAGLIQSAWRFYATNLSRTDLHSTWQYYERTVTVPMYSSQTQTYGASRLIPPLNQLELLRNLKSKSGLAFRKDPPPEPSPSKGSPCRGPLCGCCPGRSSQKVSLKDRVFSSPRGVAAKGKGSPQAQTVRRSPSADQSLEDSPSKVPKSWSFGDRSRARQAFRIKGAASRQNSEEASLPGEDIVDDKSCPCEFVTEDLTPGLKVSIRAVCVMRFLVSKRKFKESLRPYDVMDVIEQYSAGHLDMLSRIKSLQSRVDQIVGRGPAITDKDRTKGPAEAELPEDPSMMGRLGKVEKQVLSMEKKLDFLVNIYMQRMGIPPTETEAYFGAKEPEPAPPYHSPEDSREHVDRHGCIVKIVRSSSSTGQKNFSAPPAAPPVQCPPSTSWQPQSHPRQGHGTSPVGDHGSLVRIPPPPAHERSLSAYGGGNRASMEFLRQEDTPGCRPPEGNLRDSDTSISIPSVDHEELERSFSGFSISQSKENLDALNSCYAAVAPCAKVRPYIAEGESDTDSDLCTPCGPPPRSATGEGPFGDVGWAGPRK
T1 sequence (O43525 whole entry): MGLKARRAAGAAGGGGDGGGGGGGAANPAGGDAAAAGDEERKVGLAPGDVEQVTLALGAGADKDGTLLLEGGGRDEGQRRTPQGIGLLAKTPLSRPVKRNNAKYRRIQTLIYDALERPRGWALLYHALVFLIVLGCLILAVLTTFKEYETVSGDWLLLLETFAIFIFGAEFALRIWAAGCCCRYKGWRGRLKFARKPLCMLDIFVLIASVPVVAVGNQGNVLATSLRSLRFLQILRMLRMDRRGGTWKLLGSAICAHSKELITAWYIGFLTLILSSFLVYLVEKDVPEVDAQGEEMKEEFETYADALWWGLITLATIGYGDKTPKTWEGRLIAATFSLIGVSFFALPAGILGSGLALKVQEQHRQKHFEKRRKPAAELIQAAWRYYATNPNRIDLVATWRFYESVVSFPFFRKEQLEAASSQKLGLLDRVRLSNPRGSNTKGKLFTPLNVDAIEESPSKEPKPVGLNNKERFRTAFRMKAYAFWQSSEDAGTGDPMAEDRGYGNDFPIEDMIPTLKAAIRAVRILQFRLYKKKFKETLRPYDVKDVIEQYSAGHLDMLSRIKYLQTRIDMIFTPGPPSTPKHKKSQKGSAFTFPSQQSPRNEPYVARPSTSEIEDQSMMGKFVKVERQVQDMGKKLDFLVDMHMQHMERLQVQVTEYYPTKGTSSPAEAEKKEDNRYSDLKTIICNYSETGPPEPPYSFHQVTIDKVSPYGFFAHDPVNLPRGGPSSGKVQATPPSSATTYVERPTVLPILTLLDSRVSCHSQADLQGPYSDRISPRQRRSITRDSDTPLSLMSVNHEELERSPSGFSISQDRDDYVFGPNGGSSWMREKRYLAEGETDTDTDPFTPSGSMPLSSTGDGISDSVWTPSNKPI

| Emax [1] | EC50 [2] | EC50 | Emax (CHO-K1, read-out: Fluorimetry % efficacy (retigabine = 100%)) | SMILES |
| --- | --- | --- | --- | --- |
| 122% | 110 nM |  |  | CCOc1nc(N2CCOCC2)cc(C)c1C(=O)NCc1ccc(C(F)(F)F)cc1 [Example 132, 2-Ethoxy-4-methyl-6-morpholin-4-yl-N-[[4-(trifluoromethyl)-phenyl]-methyl]pyridine-3-carboxylic acid amide] |
| 149% | 82 nM |  |  | CCSc1nc(N2CCOCC2)cc(C)c1C(=O)NCc1ccc(Cl)cc1 [Example 124, N-[(4-Chlorophenyl)-methyl]-2-ethylsulfanyl-4-methyl-6-morpholin-4-yl-pyridine-3-carboxylic acid amide] |
| 214% | 366 nM |  |  | Cc1cc(N2CCOCC2)nc(N(C)C)c1C(=O)NCc1cc(F)cc(F)c1 [Example 242, N-[(3,5-Difluoro-phenyl)-methyl]-2-dimethylamino-4-methyl-6-morpholin-4-yl-pyridine-3-carboxylic acid amide] |
| 41% | 175 nM |  |  | CCSc1nc(N2CCOCC2)cc(C(F)(F)F)c1C(=O)NCc1cccc(F)c1 [Example 11, 2-Ethylsulfanyl-N-[(3-fluorophenyl)-methyl]-6-morpholin-4-yl-4-(trifluoromethyl)-pyridine-3-carboxylic acid amide] |
| 182% | 113 nM |  |  | Cc1cc(N2CCOCC2)nc(C(C)C)c1C(=O)NCc1cccc(F)c1 [Example 23, N-[(3-Fluorophenyl)-methyl]-2-isopropyl-4-methyl-6-morpholin-4-yl-pyridine-3-carboxylic acid amide] |
| 144% | 148 nM |  |  | Cc1cc(N2CCOCC2)nc(C2CC2)c1C(=O)NCc1ccc(F)cc1 [Example 331, 2-Cyclopropyl-N-[(4-fluorophenyl)-methyl]-4-methyl-6-morpholin-4-yl-pyridine-3-carboxylic acid amide] |
| 225% | 143 nM |  |  | CCSc1nc(N(C)CCOC)cc(C)c1C(=O)NCCCC(C)(C)C [Example 211, N-(4,4-Dimethyl-pentyl)-2-ethylsulfanyl-6-(2-methoxy-ethyl-methyl-amino)-4-methyl-pyridine-3-carboxylic acid amide] |
| 187% | 314 nM |  |  | Cc1cc(N2CCOCC2)nc(C(C)C)c1C(=O)NCCCC(F)(F)F [Example 315, 2-Isopropyl-4-methyl-6-morpholin-4-yl-N-(4,4,4-trifluoro-butyl)-pyridine-3-carboxylic acid amide] |
| 184% | 1560 nM |  |  | CCSc1nc(N2CCOC[C@H]2CO)cc(C)c1C(=O)NCc1cccc(F)c1 [Example 264, 2-Ethylsulfanyl-N-[(3-fluorophenyl)-methyl]-6-[(3R)-3-(hydroxymethyl)-morpholin-4-yl]-4-methyl-pyridine-3-carboxylic acid amide] |
| 147% | 2170 nM |  |  | CCCCNC(=O)c1c(C)cc(N2CCOCC2)nc1SCC [Example 80, N-Butyl-2-ethylsulfanyl-4-methyl-6-morpholin-4-yl-pyridine-3-carboxylic acid amide] |
| 174% | 740 nM |  |  | C/C=C/c1nc(N2CCOCC2)cc(C)c1C(=O)NCc1cccc(F)c1 [Example 9, N-[(3-Fluorophenyl)-methyl]-4-methyl-6-morpholin-4-yl-2-[(E)-prop-1-enyl]pyridine-3-carboxylic acid amide] |
| 157% | 729 nM |  |  | CCSc1nc(N2CCOCC2)cc(COC)c1C(=O)NCc1cccc(F)c1 [Example 346, 2-Ethylsulfanyl-N-[(3-fluorophenyl)-methyl]-4-(methoxymethyl)-6-morpholin-4-yl-pyridine-3-carboxylic acid amide] |
| 164% | 47 nM |  |  | Cc1cc(N2CCOCC2)nc(SCC(C)C)c1C(=O)NCc1cccc(F)c1 [Example 62, N-[(3-Fluorophenyl)-methyl]-4-methyl-2-(2-methyl-propylsulfanyl)-6-morpholin-4-yl-pyridine-3-carboxylic acid amide] |
| 131% | 112 nM |  |  | CCSc1nc(N2CCc3nc(C(F)(F)F)ccc3C2)cc(C)c1C(=O)NCc1cccc(F)c1 [Example 232, 2-Ethylsulfanyl-N-[(3-fluorophenyl)-methyl]-4-methyl-6-[2-(trifluoromethyl)-5,6,7,8-tetrahydro-[1,6]naphthyridin-6-yl]-pyridine-3-carboxylic acid amide] |
| 163% | 6840 nM |  |  | CCSc1nc(N2CCOCC2)cc(C)c1C(=O)NCCCC1(C)COC1 [Example 343, 2-Ethylsulfanyl-4-methyl-N-[3-(3-methyl-oxetan-3-yl)-propyl]-6-morpholin-4-yl-pyridine-3-carboxylic acid amide] |
| 225% | 345 nM |  |  | Cc1cc(N2CCOCC2)nc(N(C)C)c1C(=O)NCCCC(C)(C)C [Example 245, 2-Dimethylamino-N-(4,4-dimethyl-pentyl)-4-methyl-6-morpholin-4-yl-pyridine-3-carboxylic acid amide] |
| 166% | 682 nM |  |  | Cc1cc(N2CCOCC2)nc(C(C)(C)C)c1C(=O)NCCCC(C)(C)C [Example 220, 2-tert-Butyl-N-(4,4-dimethyl-pentyl)-4-methyl-6-morpholin-4-yl-pyridine-3-carboxylic acid amide] |
|  |  | 237 nM | 141% | CCc1cc(N2CCOCC2)nc(CC)c1C(=O)NCc1ccc(Cl)cc1 [Example 359, N-[(4-Chlorophenyl)-methyl]-2,4-diethyl-6-morpholin-4-yl-pyridine-3-carboxylic acid amide] |
| 103% | 54 nM |  |  | CCSc1nc(N2CCOCC2)cc(C)c1C(=O)NCc1cc(F)cc(C(F)(F)F)c1 [Example 93, 2-Ethylsulfanyl-N-[[3-fluoro-5-(trifluoromethyl)-phenyl]-methyl]-4-methyl-6-morpholin-4-yl-pyridine-3-carboxylic acid amide] |
| 23% |  |  |  | CCSc1nc(N2CCN(C)CC2)cc(C)c1C(=O)NCc1cccc(F)c1 [Example 31, 2-Ethylsulfanyl-N-[(3-fluorophenyl)-methyl]-4-methyl-6-(4-methyl-piperazin-1-yl)-pyridine-3-carboxylic acid amide] |
| 111% | 39 nM |  |  | CCSc1nc(N2CCOCC2)cc(C)c1C(=O)NCc1cccc(C(F)(F)F)c1F [Example 94, 2-Ethylsulfanyl-N-[[2-fluoro-3-(trifluoromethyl)-phenyl]-methyl]-4-methyl-6-morpholin-4-yl-pyridine-3-carboxylic acid amide] |
| 116% | 87 nM |  |  | CCSc1nc(N2CCOCC2)cc(C)c1C(=O)NCCC1CCCC1 [Example 44, N-(2-Cyclopentyl-ethyl)-2-ethylsulfanyl-4-methyl-6-morpholin-4-yl-pyridine-3-carboxylic acid amide] |
| 97% | 24 nM |  |  | Cc1cc(N2CCOCC2)nc(OCC(F)F)c1C(=O)NCc1ccc(Cl)cc1 [Example 270, N-[(4-Chlorophenyl)-methyl]-2-(2,2-difluoro-ethoxy)-4-methyl-6-morpholin-4-yl-pyridine-3-carboxylic acid amide] |

| SMILES | Emax [1] | EC50 [2] | EC50 | Emax (CHO-K1, read-out: Fluorimetry % efficacy (retigabine = 100%)) |
| --- | --- | --- | --- | --- |
| CCSc1nc(N2CCOCC2)cc(C)c1C(=O)NCCOC(C)(C)C [Example 83, N-(2-tert-Butoxy-ethyl)-2-ethylsulfanyl-4-methyl-6-morpholin-4-yl-pyridine-3-carboxylic acid amide] | 182% | 2800 nM |  |  |
